US7566712B2, “Biaryl piperazinyl-pyridine analogues” (Neurogen Corporation, priority 2003, dated 2009)

The compounds below were run against T1, human capsaicin receptor (Homo sapiens, UniProt Q8NER1) (assay: Calcium mobilization assay, determination of antagonist activity (Example 6)). Conditions: Table II; IC50 determined as described in Example 6.
T1 construct: pBK-CMV expression construct encoding the full length human capsaicin receptor; expressed in transfected cells
T1 sequence (Q8NER1 whole entry): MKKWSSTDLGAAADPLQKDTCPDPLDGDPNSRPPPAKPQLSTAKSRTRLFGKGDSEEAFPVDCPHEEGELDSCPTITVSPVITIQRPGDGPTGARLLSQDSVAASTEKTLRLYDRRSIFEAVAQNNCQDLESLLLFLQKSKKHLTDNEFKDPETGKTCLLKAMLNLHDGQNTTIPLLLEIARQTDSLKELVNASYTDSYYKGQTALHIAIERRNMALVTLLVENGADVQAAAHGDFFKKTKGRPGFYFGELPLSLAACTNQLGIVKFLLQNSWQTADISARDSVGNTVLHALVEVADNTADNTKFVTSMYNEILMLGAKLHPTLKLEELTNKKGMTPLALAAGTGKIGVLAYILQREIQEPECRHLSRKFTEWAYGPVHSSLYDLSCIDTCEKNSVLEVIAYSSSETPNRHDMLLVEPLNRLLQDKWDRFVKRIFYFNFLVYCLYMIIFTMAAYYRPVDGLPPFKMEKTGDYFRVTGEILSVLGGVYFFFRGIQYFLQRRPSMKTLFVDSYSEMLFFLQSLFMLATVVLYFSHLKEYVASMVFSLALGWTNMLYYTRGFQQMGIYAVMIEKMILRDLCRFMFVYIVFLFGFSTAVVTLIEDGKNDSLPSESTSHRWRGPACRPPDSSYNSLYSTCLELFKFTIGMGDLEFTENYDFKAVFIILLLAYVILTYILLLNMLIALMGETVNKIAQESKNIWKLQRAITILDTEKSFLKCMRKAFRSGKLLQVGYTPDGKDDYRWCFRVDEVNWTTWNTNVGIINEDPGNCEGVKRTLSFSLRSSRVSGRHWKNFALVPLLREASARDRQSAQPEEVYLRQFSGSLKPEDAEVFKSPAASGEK
Type: cell-based
Summary of the method: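 Antagonism measured as inhibition of capsaicin-evoked (final concentration = EC50, from an 8-point 1 nM–3 μM curve) Fluo-3 calcium signal in stable hVR1-HEK293 cells. Test compounds at 1–5 μM final, 0.5–6 h dark preincubation at room temperature. IC50 = concentration giving 50% reduction versus agonist-only response.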
With `CN1CCC(N(C)c2nc(-c3ccc(F)c(Cl)c3)cc(N3CCN(c4ncccc4C(F)(F)F)CC3)n2)C1` (stereo not shown) [Example 564, 4-(3-chloro-4-fluorophenyl)-N-methyl-N-(1-methylpyrrolidin-3-yl)-6-{4-[3-(trifluoromethyl)pyridin-2-yl]piperazin-1-yl}pyrimidin-2-amine] the IC50 was ≤ 1 µM. In the case of `Cc1cc(-c2cc(N3CCN(c4ncccc4Cl)C[C@H]3C)nc(N3CCOCC3)n2)ccc1F` [Example 498, 4-[4-[(2R)-4-(3-chloropyridin-2-yl)-2-methylpiperazin-1-yl]-6-(4-fluoro-3-methytphenyl)pyrimidin-2-yl]morpholine], the IC50 is reported as ≤ 1 µM. For `CC(C)c1cccc(-c2cc(N3CCN(c4ncccc4C#N)C[C@H]3C)nc(N3CCOCC3)n2)c1` [Example 499, 2-{(3R)-4-[6-(3-isopropylphenyl)-2-morpholin-4-ylpyrimidin-4-yl]-3-methylpiperazin-1-yl}nicotinonitrile], the IC50 was ≤ 1 µM.

Same assay, conditions: Table II; IC50 determined as described in Example 6 (antagonist activity, calcium mobilization)
`Cc1ccc(-c2cc(N3CCN(c4ncccc4Cl)C[C@H]3C)nc(N3CCC[C@H]3C)n2)cc1F` [Example 979, 4-[(2R)-4-(3-chloropyridin-2-yl)-2-methylpiperazin-1-yl]-6-(3-fluoro-4-methylphenyl)-2-[(2R)-2-methylpyrrolidin-1-yl]pyrimidine] was tested, and the IC50 was ≤ 1 µM.

Same assay, conditions: Table II; determined as described in Example 6 (antagonist activity); "*" = 1 micromolar or less
With `C[C@@H]1CN(c2ncccc2Cl)CCN1c1cc(-c2ccc(F)cc2)nc(N2CCCCC2)n1` [Example 844, 4-[(2R)-4-(3-chloropyridin-2-yl)-2-methylpiperazin-1-yl]-6-(4-fluorophenyl)-2-piperidin-1-ylpyrimidine] the IC50 was ≤ 1 µM. `CNC(=O)c1cnc(N2CCN(c3cc(-c4ccc(F)c(Cl)c4)nc(N4CCCC4C)n3)CC2)c(Cl)c1` (stereo not shown) [Example 825, 5-chloro-6-{4-[6-(3-chloro-4-fluorophenyl)-2-(2-methylpyrrolidin-1-yl)pyrimidin-4-yl]piperazin-1-yl}-N-methylnicotinamide] was tested, and the IC50 was ≤ 1 µM. For `CCCN1CCN(c2nc(-c3ccc(F)c(Cl)c3)cc(N3CCN(c4ncc(N)cc4C)CC3)n2)CC1` [Example 819, 6-{4-[6-(3-chloro-4-fluorophenyl)-2-(4-propylpiperazin-1-yl)pyrimidin-4-yl]piperazin-1-yl}-5-methylpyridin-3-amine], the IC50 was ≤ 1 µM. `CC1(O)CN(c2nc(-c3ccc(F)c(Cl)c3)cc(N3CCN(c4ncccc4C(F)(F)F)CC3)n2)C1` [Example 778, 1-(4-(3-chloro-4-fluorophenyl)-6-{4-[3-(trifluoromethyl)pyridin-2-yl]piperazin-1-yl}pyrimidin-2-yl)-3-methylazetidin-3-oI] was tested, and the IC50 was ≤ 1 µM. `C[C@H]1CN(c2nccnc2Cl)CCN1c1cc(-c2ccc(F)c(F)c2)nc(N2CCCC2)n1` [Example 937, 4-[(2S)-4-(3-chloropyrazin-2-yl)-2-methylpiperazin-1-yl]-6-(3,4-difluorophenyl)-2-pyrrolidin-1-ylpyrimidine] was tested, and the IC50 was ≤ 1 µM. In the case of `CC(=O)c1ccc(-c2cc(N3CCN(c4ncccc4Cl)C[C@H]3C)nc(N3CCOCC3)n2)cc1` [Example 858, 1-(4-{6-[(2R)-4-(3-chloropyridin-2-yl)-2-methylpiperazin-1-yl]-2-morpholin-4-ylpyrimidin-4-yl}phenyl)ethanone], the IC50 is reported as ≤ 1 µM. `C[C@@H]1CN(c2ncccc2C(F)(F)F)CCN1c1cc(-c2ccc(F)c(F)c2)nc(N2CCCCC2)n1` [Example 793, 4-(3,4-difluorophenyl)-6-{(2R)-2-methyl-4-[3-(trifluoromethyl)pyridin-2-yl]piperazin-1-yl}-2-piperidin-1-ylpyrimidine] was tested, and the IC50 was ≤ 1 µM. With `C[C@@H]1CN(c2nccnc2Cl)CCN1c1nc(Cl)cc(-c2ccc(F)cc2)n1` [Example 919, 4-chloro-2-[(2R)-4-(3-chloropyrazin-2-yl)-2-methylpiperazin-1-yl]-6-(4-fluorophenyl)pyrimidine] the IC50 was ≤ 1 µM. `CC(=O)c1nc(-c2ccc(F)c(C(C)=O)c2)cc(N2CCN(c3ncccc3C(F)(F)F)CC2)n1` [Example 846, 1-(4-(3-acetyl-4-fluorophenyl)-6-{4-[3-(trifluoromethyl)pyridin-2-yl]piperazin-1-yl}pyrimidin-2-yl)ethanone] was tested, and the IC50 was ≤ 1 µM. With `C[C@@H]1CN(c2ncccc2Cl)CCN1c1cc(-c2cncc(Cl)c2)nc(N2CCCC2)n1` [Example 806, 4-(5-chloropyridin-3-yl)-6-[(2R)-4-(3-chloropyridin-2-yl)-2-methylpiperazin-1-yl]-2-pyrrolidin-1-ylpyrimidine] the IC50 was ≤ 1 µM. In the case of `Fc1ccc(-c2cc(N3CCN(c4ncccc4C(F)(F)F)CC3)nc(-c3ccccn3)n2)cc1Cl` [Example 830, 4-(3-chloro-4-fluorophenyl)-2-pyridin-2-yl-6-{4-[3-(trifluoromethyl)pyridin-2-yl]piperazin-1-yl}pyrimidine], the IC50 is reported as ≤ 1 µM.

Same assay, conditions: Table II; determined as described in Example 6; class symbol
In the case of `Cc1cccc(-c2nc(N3CCCCCC3)nc(N3CCN(c4ncccc4C(F)(F)F)CC3)n2)c1` [Example 262, 1-(4-(3-methylphenyl)-6-{4-[3-(trifluoromethyl)pyridin-2-yl]piperazin-1-yl}-1,3,5-triazin-2-yl)azepane], the IC50 is reported as ≤ 1 µM. In the case of `Cc1ccc(F)cc1-c1nc(N2CCOCC2)nc(N2CCN(c3ccccn3)CC2)n1` [Example 272, 2-(5-fluoro-2-methylphenyl)-4-morpholin-4-yl-6-(4-pyridin-2-ylpiperazin-1-yl)-1,3,5-triazine], the IC50 is reported as ≤ 1 µM.

Same assay, conditions: determined as described in Example 6 (calcium mobilization, antagonist activity); Table II
With `CNC(=O)C1CCN(c2nc(-c3ccc(F)c(Cl)c3)cc(N3CCN(c4ncccc4C(F)(F)F)CC3)n2)CC1` [Example 653, 1-(4-(3-chloro-4-fluorophenyl)-6-{4-[3-(trifluoromethyl)pyridin-2-yl]piperazin-1-yl}pyrimidin-2-yl)-N-methylpiperidine-4-carboxamide] the IC50 was ≤ 1 µM. For `CCCN1CCN(c2nc(-c3ccc(F)c(C)c3)cc(N3CCN(c4ncccc4C(F)(F)F)CC3)n2)CC1` [Example 682, 4-(4-fluoro-3-methylphenyl)-2-(4-propylpiperazin-1-yl)-6-{4-[3-(trifluoromethyl)pyridin-2-yl]piperazin-1-yl}pyrimidine], the IC50 was ≤ 1 µM. With `Cc1cc(-c2cc(N3CCN(c4ncccc4Cl)CC3)nc(N3CCOC(C)(C)C3)n2)ccc1F` [Example 743, 4-{4-[4-(3-chloropyridin-2-yl)piperazin-1-yl]-6-(4-fluoro-3-methylphenyl)pyrimidin-2-yl]-2,2-dimethylmorpholine] the IC50 was ≤ 1 µM. In the case of `Cc1cc(-c2cc(N3CCN(c4ncccc4C(F)(F)F)CC3)nc(N(C)C(C)C)n2)ccc1F` [Example 640, 4-(4-fluoro-3-methylphenyl)-N-isopropyl-N-methyl-6-{4-[3-(trifluoromethyl)pyridin-2-yl]piperazin-1-yl}pyrimidin-2-amine], the IC50 is reported as ≤ 1 µM. In the case of `Cc1cc(-c2cc(N3CCN(c4ncccc4C(F)(F)F)CC3)nc(N3C(C)CCC3C)n2)ccc1F` (stereo not shown) [Example 677, 2-(2,5-dimethylpyrrolidin-1-yl)-4-(4-fluoro-3-methylphenyl)-6-{4-[3-(trifluoromethyl)pyridin-2-yl]piperazin-1-yl}pyrimidine], the IC50 is reported as ≤ 1 µM. `CC(CO)N(C)c1nc(-c2ccc(F)c(Cl)c2)cc(N2CCN(c3ncccc3C(F)(F)F)CC2)n1` (stereo not shown) [Example 758, 2-[(4-(3-chloro-4-fluorophenyl)-6-{4-[3-(trifluoromethyl)pyridin-2-yl]piperazin-1-yl}pyrimidin-2-yl)(methyl)amino]propan-1-ol] was tested, and the IC50 was ≤ 1 µM. With `Cc1cc(-c2cc(N3CCN(c4ncccc4Cl)C[C@H]3C)nc(N3CCCCC3C)n2)ccc1F` (stereo partly drawn) [Example 745, 4-[(2R)-4-(3-chloropyridin-2-yl)-2-methylpiperazin-1-yl]-6-(4-fluoro-3-methylphenyl)-2-(2-methylpiperidin-1-yl)pyrimidine] the IC50 was ≤ 1 µM. With `Cc1cc(-c2cc(N3CCN(c4ncccc4C(F)(F)F)CC3)nc(N(C(C)C)S(=O)(=O)C(C)C)n2)ccc1F` [Example 692, N-(4-(4-fluoro-3-methylphenyl)-6-{4-[3-(trifluoromethyl)pyridin-2-yl]piperazin-1-yl}pyrimidin-2-yl)-N-isopropylpropane-2-sulfonamide] the IC50 was ≤ 1 µM. In the case of `CCN(CC)c1nc(-c2ccc(F)c(C)c2)cc(N2CCN(c3ncccc3C(F)(F)F)CC2)n1` [Example 594, N,N-diethyl-4-(4-fluoro-3-methylphenyl)-6-{4-[3-(trifluoromethyl)pyridin-2-yl]piperazin-1-yl}pyrimidin-2-amine], the IC50 is reported as ≤ 1 µM. `Cc1cc(-c2cc(N3CCN(c4ncccc4C(F)(F)F)CC3)nc(N(C)S(=O)(=O)C(C)C)n2)ccc1F` [Example 691, N-(4-(4-fluoro-3-methylphenyl)-6-{4-[3-(trifluoromethyl)pyridin-2-yl]piperazin-1-yl}pyrimidin-2-yl)-N-methytpropane-2-sulfonamide] was tested, and the IC50 was ≤ 1 µM. For `Cc1cc(-c2cc(N3CCN(c4ncccc4C(F)(F)F)CC3)nc(N3CCC3C)n2)ccc1F` (stereo not shown) [Example 756, 4-(4-fluoro-3-methylphenyl)-2-(2-methylazetidin-1-yl)-6-{4-[3-(trifluoromethyl)pyridin-2-yl]piperazin-1-yl}pyrimidine], the IC50 was ≤ 1 µM. For `Cc1cccnc1N1CCN(c2cc(-c3ccc(F)c(F)c3)nc(N3CCCC3C)n2)CC1` (stereo not shown) [Example 703, 4-(3,4-difluorophenyl)-6-[4-(3-methylpyridin-2-yl)piperazin-1-yl]-2-(2-methylpyrrolidin-1-yl)pyrimidine], the IC50 was ≤ 1 µM. For `Fc1ccc(-c2cc(N3CCN(c4ncccc4C(F)(F)F)CC3)nc(N3CCCCC3)n2)cc1Cl` [Example 602, 4-(3-chloro-4-fluorophenyl)-2-piperidin-1-yl-6-{4-[3-(trifluoromethyl)pyridin-2-yl]piperazin-1-yl}pyrimidine], the IC50 was ≤ 1 µM. With `C[C@H](Nc1nc(-c2ccc(F)c(Cl)c2)cc(N2CCN(c3ncccc3C(F)(F)F)CC2)n1)C(=O)O` [Example 620, N-(4-(3-chloro-4-fluorophenyl)-6-{4-[3-(trifluoromethyl)pyridin-2-yl]piperazin-1-yl}pyrimidin-2-yl)alanine] the IC50 was ≤ 1 µM.
